≈ marks a conversion by molar mass, not a printed value.

The chains are these.
B1: TMPKh (human TMPK) (Homo sapiens) (protein)
chain: MAARRGALIVLEGVDRAGKSTQSRKLVEALCAAGHRAELLRFPERSTEIGKLLSSYLQKKSDVEDHSVHLLFSANRWEQVPLIKEKLSQGVTLVVDRYAFSGVAFTGAKENFSLDWCKQPDVGLPKPDLVLFLQLQLADAAKRGAFGHERYENGAFQERALRCFHQLMKDTTLNWKMVDASKSIEAVHEDIRVLSEDAIRTATEKPLGELWK

Chain of TMPKmt (M. tuberculosis TMPK) (P9WKE1 whole entry, looked up): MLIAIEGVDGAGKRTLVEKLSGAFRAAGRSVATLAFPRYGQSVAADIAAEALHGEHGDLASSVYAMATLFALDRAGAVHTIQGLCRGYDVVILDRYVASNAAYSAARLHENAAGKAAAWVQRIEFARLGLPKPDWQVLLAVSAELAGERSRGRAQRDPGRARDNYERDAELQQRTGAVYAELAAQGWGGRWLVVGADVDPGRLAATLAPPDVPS

One data set has as its system Cc1cn([C@H]2C[C@H](O)[C@@H](COP(=O)(O)O)O2)c(=O)[nH]c1=O. Briefly: purified protein, by the assay type. The conditions noted are these: other: substrate Km; pH 7.4; 30.0 °C.
“TMPKmt (M. tuberculosis TMPK) (Mycobacterium tuberculosis H37Rv)”: the Michaelis-Menten constant (Km) (commonly the substrate concentration at which the rate is half of its maximum) worked out at 4.5 µM.

Substrate in the next data set: Cc1cn([C@H]2C[C@H](O)[C@@H](COP(=O)(O)O)O2)c(=O)[nH]c1=O
Briefly: purified protein, by the assay type. The conditions noted are these: other: substrate Km; pH 7.4; 30.0 °C. The source holds these as a separate data set.
Turning to B1, the Km was found to be 5 µM.

The subject of another data set is Mycobacterium tuberculosis H37Ra. Briefly: IC50 on cultures of Mycobacterium tuberculosis H37Ra.
Conditions: not given
The format is cell-based. An excerpt: The IC50 value for three compounds has been measured on cultures of Mycobacterium tuberculosis H37Ra.
For the molecule `Cc1cn(Cc2ccc(CCCCCC(=O)O)cc2)c(=O)[nH]c1=O` [Compound 22, 6-[4-(5-Methyl-2,4-dioxo-3,4-dihydro-2H-pyrimidin-1-yl-methyl)-phenyl]-hexanoic acid], the IC50 (usually the concentration that gives 50% inhibition) is 25 µg/mL (≈ 75.7 µM).

Consider `Cc1cn(Cc2ccc(CCCC(=O)O)cc2)c(=O)[nH]c1=O` [Compound 20, 4-[4-(5-Methyl-2,4-dioxo-3,4-dihydro-2H-pyrimidin-1-yl-methyl)-phenyl]-butyric acid], for which the IC50 was 100 µg/mL (≈ 331 µM). Compared with the last molecule, the IC50 is about 4-fold higher.

In turn, `O=C(O)CCCc1ccc(Cn2cc(Br)c(=O)[nH]c2=O)cc1` [Compound 21, 4-[5-Bromo-(2,4-dioxo-3,4-dihydro-2H-pyrimidin-1-ylmethyl)-phenyl]butyric acid] came in with an IC50 of 50 µg/mL (≈ 136 µM).

The next data set addresses TMPKmt (M. tuberculosis TMPK) (Mycobacterium tuberculosis, UniProt P9WKE1). Briefly: biochemical. The format is biochemical.
Conditions: not given
Regarding `Cc1cn(Cc2ccc(CC(F)CC=O)cc2)c(=O)[nH]c1=O` (stereo not drawn) [Compound 64, 3-Fluoro-4-[4-(5-methyl-2,4-dioxo-3,4-dihydro-2H-pyrimidin-1-yl-methyl)-phenyl]-butyraldehyde], the inhibitory constant (Ki) (commonly the equilibrium dissociation constant of an inhibitor or competing ligand from its target) turned out to be 26 µM.

`NC(=O)CCCCCc1ccc(Cn2cc(Cl)c(=O)[nH]c2=O)cc1` [Compound 62, 6-[4-(5-Chloro-2,4-dioxo-3,4-dihydro-2H-pyrimidin-1-yl-methyl)-phenyl]-hexanoic acid amide] registered a Ki of 32 µM.

Take `O=C(O)CCCCCc1ccc(Cn2cc(Cl)c(=O)[nH]c2=O)cc1` [Compound 59, 6-[4-(5-Chloro-2,4-dioxo-3,4-dihydro-2H-pyrimidin-1-yl-methyl)-phenyl]-hexanoic acid]: the Ki came to 49 µM.

`Cc1cn(Cc2ccc(CC(F)CC(=O)O)cc2)c(=O)[nH]c1=O` (stereo not drawn) [Compound 65, 3-Fluoro-4-[4-(5-Methyl-2,4-dioxo-3,4-dihydro-2H-pyrimidin-1-yl-methyl)-phenyl]-butyric acid] had an inhibitory constant (Ki) of 63 µM.

Still in this data set, the particulars now being: pH 7.4; read-out: Ki.
With `O=C(O)CCCc1ccc(Cn2cc(Cl)c(=O)[nH]c2=O)cc1` [Compound 39], the Ki amounted to 15 µM.

Consider `O=C(O)CCCCCc1ccc(Cn2cc(Br)c(=O)[nH]c2=O)cc1` [Compound 58, 6-[4-(5-Bromo-2,4-dioxo-3,4-dihydro-2H-pyrimidin-1-yl-methyl)-phenyl]-hexanoic acid], for which the inhibition constant Ki amounted to 42 µM.

`Cc1cn(Cc2ccc(CSCC(=O)O)cc2)c(=O)[nH]c1=O` [Compound 63, 3-[4-(5-Methyl-2,4-dioxo-3,4-dihydro-2H-pyrimidin-1-ylmethyl)-benzylsulfanyl]-acetic acid]: the Ki was 15 µM.

With `O=C(O)CCCCc1ccc(Cn2cc(Br)c(=O)[nH]c2=O)cc1` [Compound 48, 5-[4-(5-Bromo-2,4-dioxo-3,4-dihydro-2H-pyrimidin-1-yl-methyl)-phenyl]-pentanoic acid], the Ki is 47 µM.

Consider `Cc1cn(Cc2ccc(CCCCC(=O)O)cc2)c(=O)[nH]c1=O` [Compound 45, 5-[4-(5-Methyl-2,4-dioxo-3,4-dihydro-2H-pyrimidin-1-yl-methyl)-phenyl]-pentanoic acid], for which the Ki was found to be 72 µM.

With `COC(=O)CCCc1ccc(Cn2cc(C)c(=O)[nH]c2=O)cc1` [Compound 40a], the inhibitory constant (Ki) worked out at 70 µM.

Turning to `Cc1cn(Cc2ccc(C#CCCCC(N)=O)cc2)c(=O)[nH]c1=O` [Compound 53, 6-[4-(5-Methyl-2,4-dioxo-3,4-dihydro-2H-pyrimidin-1-yl-methyl)-phenyl]-hexyn-5-oic acid amide], the Ki stood at 113 µM.

In the case of `NC(=O)CCCCCc1ccc(Cn2cc(Br)c(=O)[nH]c2=O)cc1` [Compound 61, 6-[4-(5-Bromo-2,4-dioxo-3,4-dihydro-2H-pyrimidin-1-yl-methyl)-phenyl]-hexanoic acid amide], the Ki stood at 24 µM.

For `Cc1cn(Cc2ccc(CCCCCC(N)=O)cc2)c(=O)[nH]c1=O` [Compound 54, 6-[4-(5-Methyl-2,4-dioxo-3,4-dihydro-2H-pyrimidin-1-yl-methyl)-phenyl]-hexanoic acid amide], the Ki was 33 µM.

Turning to `Cc1cn(Cc2ccc(C#CCCCC(=O)O)cc2)c(=O)[nH]c1=O` [Compound 51, 6-[4-(5-Methyl-2,4-dioxo-3,4-dihydro-2H-pyrimidin-1-yl-methyl)-phenyl]-hexyn-5-oic acid], the inhibition constant (Ki) was found to be 119 µM.

Take `Cc1cn(Cc2ccc(CCCC(N)=O)cc2)c(=O)[nH]c1=O` [Compound 40b]: the Ki amounted to 139 µM.

As to `Cc1cn(Cc2ccc(C#CCCO)cc2)c(=O)[nH]c1=O` [Compound 30, 1-[4-(4-Hydroxy-but-1-ynyl)-benzyl]-5-methyl-1H-pyrimidine-2,4-dione], the inhibition constant Ki is 86 µM.

In the case of `Cc1cn(Cc2ccc(CCCCO)cc2)c(=O)[nH]c1=O` [Compound 31, 1-[4-(4-Elydroxy-butyl)-benzyl]-5-methyl-1H-pyrimidine-2,4-dione], the inhibitory constant (Ki) came to 63 µM.

Staying with this data set, now noted: pH 7.4; read-out: TMPKmt W1002 Ki.
For the molecule `N#Cc1cn(Cc2ccccc2)c(=O)[nH]c1=O` [Compound 12], the inhibitory constant (Ki) is 980 µM.

Consider `Cc1cn(Cc2ccc(Cl)cc2)c(=O)[nH]c1=O` [Compound 9, 5-Methyl-1-(4-chloro-benzyl)-1H-pyrimidine-2,4-dione], for which the Ki was determined as 50 µM.

Consider `Cc1cn(Cc2ccc(F)cc2)c(=O)[nH]c1=O` [Compound 6, 5-Methyl-1-(4-fluoro-benzyl)-1H-pyrimidine-2,4-dione], for which the Ki amounted to 45 µM.

Turning to `CCOC(=O)CCc1ccc(Cn2cc(C)c(=O)[nH]c2=O)cc1` [Compound 19, 3-[4-(5-Methyl-2,4-dioxo-3,4-dihydro-2H-pyrimidin-1-ylmethyl)-phenyl]-propionic acid ethyl ester], the inhibition constant Ki turned out to be 265 µM.

For `Cc1cn(Cc2ccc(C=CC(N)=O)cc2)c(=O)[nH]c1=O` [Compound 14, 3-[4-(5-Methyl-2,4-dioxo-3,4-dihydro-2H-pyrimidin-1-ylmethyl)-phenyl]-acrylamide], the Ki amounted to 240 µM.

For `Cc1cn(Cc2ccc(F)c(F)c2)c(=O)[nH]c1=O` [Compound 8, 5-Methyl-1-(3,4-difluoro-benzyl)-1H-pyrimidine-2,4-dione], the Ki stood at 67 µM.

Regarding `O=c1[nH]c(=O)n(Cc2ccccc2)cc1Br` [Compound 4, 5-Bromo-1-benzyl-1H-pyrimidine-2,4-dione], the inhibitory constant (Ki) worked out at 44 µM.

On to `Cc1cn(Cc2ccc(CCC(N)=O)cc2)c(=O)[nH]c1=O` [Compound 1, 3-[4-(5-Methyl-2,4-dioxo-3,4-dihydro-2H-pyrimidin-1-ylmethyl)-phenyl]-propionamide], for which the inhibition constant (Ki) turned out to be 110 µM.

On to `N#Cc1cn(Cc2cccc(Cl)c2)c(=O)[nH]c1=O` [Compound 13], for which the inhibition constant Ki came out at 810 µM.

Consider `Cc1cn(Cc2ccc(CCC(=O)O)cc2)c(=O)[nH]c1=O` [Compound 2, 3-[4-(5-Methyl-2,4-dioxo-3,4-dihydro-2H-pyrimidin-1-ylmethyl)-phenyl]-propionic acid], for which the Ki came out at 68 µM.

Regarding `Cc1cn(Cc2ccc(Br)cc2)c(=O)[nH]c1=O` [Compound 11, 5-Methyl-1-(4-bromo-benzyl)-1H-pyrimidine-2,4-dione], the inhibitory constant (Ki) came to 38 µM.

Take `Cc1cn(Cc2cccc(F)c2)c(=O)[nH]c1=O` [Compound 7, 5-Methyl-1-(3-fluoro-benzyl)-1H-pyrimidine-2,4-dione]: the Ki is 90 µM.

For `Cc1cn(Cc2ccc(CCCCCC(=O)O)cc2)c(=O)[nH]c1=O` [Compound 22, 6-[4-(5-Methyl-2,4-dioxo-3,4-dihydro-2H-pyrimidin-1-yl-methyl)-phenyl]-hexanoic acid], the Ki came to 32 µM.

As for `Cc1cn(Cc2ccc(CCCC(=O)O)cc2)c(=O)[nH]c1=O` [Compound 20, 4-[4-(5-Methyl-2,4-dioxo-3,4-dihydro-2H-pyrimidin-1-yl-methyl)-phenyl]-butyric acid], the Ki is 16.5 µM.

`Cc1cn(Cc2cccc(Cl)c2)c(=O)[nH]c1=O` [Compound 10, 5-Methyl-1-(3-chloro-benzyl)-1H-pyrimidine-2,4-dione]: the Ki worked out at 44 µM.

On to `Cc1cn(Cc2ccccc2)c(=O)[nH]c1=O` [Compound 3, 5-Methyl-1-Benzyl-1H-pyrimidine-2,4-dione], for which the inhibition constant (Ki) came out at 75 µM.

Another data set deals with VERO cells. Briefly: cytotoxicity on VERO cells. In kind it is cell-based.
Conditions: not given
How it is done:
Cytotoxicity: The molecule 22 has been tested for its cytotoxicity on VERO cells. It has been determined that no growth inhibition, and consequently no cytotoxic activity, could be detected up to a concentration of 250 μg/ml of compound 22.
With `Cc1cn(Cc2ccc(CCCCCC(=O)O)cc2)c(=O)[nH]c1=O` [Compound 22, 6-[4-(5-Methyl-2,4-dioxo-3,4-dihydro-2H-pyrimidin-1-yl-methyl)-phenyl]-hexanoic acid], the “concentration up to which no growth inhibition / no cytotoxic activity could be detected” value is > 250 µg/mL.
